Legend:
[1] = system: CD3+ cells; test: Western blot, fractionation and immunofluorescence of stimulated CD3+ cells; type: cell-based
Description: (FIG. 4A) Scheme of CD3+ T-cell activation and analysis for various timepoints in order to investigate mitophagy induction in vitro. (FIG. 4B) Analysis of mitochondrial membrane potential within CD8+ T cells, with TMRM^lo representing cells with low mitochondrial membrane potential. Analysis was performed six hours after stimulation with aCD/aCD28 stimulation beads at the presence of the indicated treatments. N=4 per group, *p < 0.05 by Mann Whitney U test. One of two independent experiments are shown. (FIG. 4C) Representative flow histogram and quantification of lysosome formation in CD8+ cells six hours after in vitro stimulation. MFI shown relative to DMSO controls, n=4. Data are normalised mean ± SD, statistical analysis by two-sided t-test. One out of two independent experiments are shown. (FIG. 4D) Mitotracker Red staining of in vitro stimulated CD8+ cells after 24 hours of Urolithin A (UA25 n=6; UA50 n=6) or vehicle control treatment (DMSO: n=4). A representative flow histogram depicting identification of Mitotracker^hi cells is shown. Data are mean ± SD, statistical analysis was performed by two-sided t-test (*p < 0.05; ***p <0.001; ****p < 0.0001). Experiment was repeated twice. (FIG. 4E) Subset-specific identification of Mitotracker red accumulation after 24 hours of in vitro stimulation either with vehicle control (DMSO) or 50 µM Urolithin A (n=5). Subsets were identified was depicted in the FIGS. 7-9. Data are mean ± SD, statistical analysis by two-sided t-test (* p<0.05, *** p<0.001 and **** p<0.0001). (FIG. 4F) qPCR analysis of various autophagy/mitophagy associated genes of in vitro activated CD3+ cells, 24 h after activation (n=3). Data are ± SEM, statistical analysis was performed by two-sided t-test (*p < 0.05,**p < 0.01). Overall p value is given for the comparison over the entire panel of genes after two-way ANOVA test. (FIG. 4G) Western blot of Parkin protein expression in UA or DMSO (n=3) treated cells after 24 h. Cells were stimulated at the presence of plate-bound aCD3/aCD28 antibodies. […] (FIG. 4H) CD8+ cells from Pink1^-/- mice display deficient mitophagy upon UA treatment in vitro: Lysosome formation in CD8+ of Pink1^-/- mice as assessed by Lysotracker staining 6h post stimulation at the presence of UA or DMSO (n=4). Data are mean ± SD, one out of two independent experiments are shown. (FIG. 4I) CD8+ cells from Pink1^-/- mice display deficient mitophagy upon UA treatment in vitro: Mitotracker red staining of Pink1^-/- CD8+ stimulated in vitro for 48 h, either in the presence of UA or DMSO (n=4). Percentage of Mitotracker^hi CD8+ cells are shown. Data are mean ± SD and acquired via flow cytometry. […] Quantification of TCF1^hi cells among CD8. (FIG. 4N) Quantification of PD1^hi cells among CD8. (FIG. 4O) Quantification of and Tim3^hi cells among CD8. […]

[2] = system: CD19-CAR T cells; test: CD19-CAR T cell generation in presence of UA; type: cell-based, human
[3] = system: C.elegans; details: in vivo; cited from earlier work
[4] = system: NALM-6 leukemia cells; test: Killing of NALM-6 cells by CD19-CAR T cells; type: cell-based, human; details: 24 h co-culture
[5] = system: Th1/Th17 cell infiltration; details: in vivo; cited from earlier work

O=c1oc2cc(O)ccc2c2ccc(O)cc12 [Urolithin A]
phosphorylation of Stat1 ([1]; 6 h, compared to vehicle controls): equal phosphorylation of Stat1 | Parkin protein expression (Western blot) ([1]; 24 h): stabilized Parkin protein expression | b-catenin phosphorylation ([1]; after 6 hours): marked decrease | Pgam5 localization (sub-cellular fractionation, immunofluorescence) ([1]; six hours): rapidly released into the cytoplasma | gene delivery into CD8+ cells [2]: did not impair gene delivery | markers of exhaustion ([2]; UA supplementation): not affected | CAR expressing TSCM cells among CD8+ cells ([2]; three days post transduction, upon UA exposure): about 60% | lifespan [3]: prolonged lifespan | mitochondrial content [3]: higher mitochondrial content | CD19 CAR-T cell mediated killing of NALM-6 leukemia cells [4]: did not have a negative impact | Th1/Th17 cell infiltration [5]: blocking Th1/Th17 cell infiltration

Source: patent US20230277669A1, “USES OF UROLITHINS” (Amazentis SA, priority 2022, published 2023)
